Ends that are not written are not given here. Peptide text beside a SMILES is read from it. * marks the point of attachment. Biotin = O=C1N[C@H]2[C@H](CS[C@H]2CCCCC(=O)*)N1
Key:
His-DDX3X^414-582 [1] = molecular target: T1, His-DDX3X^414-582 (Homo sapiens, UniProt O00571); assay: Direct-binding ELISA of biotinylated CK1 peptides on coated His-DDX3X^414-582; conditions: 1 µg/well biotinylated peptide, 2.5 h, room temperature; HRP-streptavidin/ABTS, 405 nm; data normalized to δ-141 = 100%; n=3
T1 construct: contained 10 µM His-DDX3X^414-582; His; made in house; host or cells: E. coli Rosetta2 (pET28a)
T1 sequence (O00571 414-582): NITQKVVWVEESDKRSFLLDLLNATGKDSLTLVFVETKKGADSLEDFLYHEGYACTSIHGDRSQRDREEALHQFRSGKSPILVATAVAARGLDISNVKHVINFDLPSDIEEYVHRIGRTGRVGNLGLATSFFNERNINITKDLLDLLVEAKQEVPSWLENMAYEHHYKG
Text: According to the amino acid sequences of the N-terminal and the kinase domain of human CK1δ (UniProt entry P48730), 30 CK1δ-derived peptides were generated. In order to investigate the effects of sequence-specific differences in the sequence of CK1ε (UniProt entry P49674) compared with CK1δ, seven additional CK1ε-derived peptides were generated (Fig. S2). Each peptide consists of 15 amino acids with the first and last five amino acids always overlapping the previous and the following peptide, respectively. At the N-terminus the peptides were coupled to biotin via a four amino acid spacer sequence (SGSG). For peptide position and sequence information see Fig. S2. All peptides were pre-dissolved in DMSO (final concentration of 12.5% DMSO in the peptide stock).
His-DDX3X^414-582 protein fragment was coated onto 96-well Nunc MaxiSorp plates (NUNC, Denmark) at a final concentration of 0.01 µg/µl in 100 mM sodium carbonate buffer (pH 9.6) at 4°C overnight. Unspecific binding sites were blocked with 5% FCS in PBS. Biotinylated CK1δ- and CK1ε-derived peptides (1 µg/well) were added and incubated for 2.5 h at room temperature. DMSO (0.35%) and water were used as negative controls. Detection of the bound biotinylated peptides was performed by incubation with HRP-streptavidin (1:8000 in 0.5% FCS in PBS). Finally, plates were incubated with ABTS detection reagent [50 mM potassium phosphate buffer, pH 5.7, 5% ABTS solution (1 mg/ml), 0.05% H2O2]. Absorption was measured at 405 nm after incubation for 40 min.

His-DDX3X^414-582 [2] = molecular target: T1, His-DDX3X^414-582; assay: Fluorescence thermal shift (FTS) assay; type: binding; conditions: 20 µM peptide, 10 µM His-DDX3X^414-582, 50 mM HEPES pH 8, SYPRO-Orange
Experimental: FTS reactions were performed in a total volume of 20 µl in 50 mM HEPES (pH 8) and contained 10 µM His-DDX3X^414-582, a final concentration of 20 µM of each indicated CK1δ- or CK1ε-derived peptide, as well as 10×SYPRO-Orange (Invitrogen). DMSO (0.35%) and water were used as controls. Measurements were performed in a LightCycler 480 device for real-time PCR (Roche) according to the manufacturer's instructions. Respective protein melting temperatures were calculated using the protein-melting evaluation software supplied by Roche.

[3] = test system: DDX3X-stimulated CK1ε (CK1εΔC); assay: In vitro radioactive kinase assay, DDX3X-stimulated CK1ε activity; type: biochemical, human; conditions: 0.3 µM peptide; recombinant DDX3X and CK1εΔC; CK1εΔC alone set to 1; n=3
Experimental: (§1) Kinase assays were carried out essentially as described ([Cruciat et al., 2013]). For kinase assays, full-length DDX3X protein was expressed and purified from HEK293T cells as described for the ATPase assay. Deletion constructs were purified from E. coli. The eluted proteins were visualized using Coomassie Blue and the intensity of the protein bands was measured using ImageJ. The amounts used for kinase assays were estimated based on this staining. Where indicated, dsRNA was premixed with proteins at room temperature (RT) for 15 min before subjecting samples to radioactive kinase assays. The CK1 substrate peptide […] for the kinase assay and samples was analyzed using p81 phosphocellulose (Biomol) as described ([Zhai et al., 1992]). 0.3 µM CK1δ/ε-derived and control peptides were used ([Schacherl et al., 2015]). For mass spectrometric analyses DDX3X helicase core (His-DDX3X^168-582) as well as the C-terminal helicase domain (His-DDX3X^414-582) were in vitro phosphorylated by CK1ε. Also, reactions without addition of kinase were performed and analyzed in order to correct for false-positive results. Mass spectrometry data acquisition and analysis of trypsin-digested samples were performed at the Core Unit Mass Spectrometry and Proteomics (Ulm University) essentially as described in [Meng et al. (2016)].

[4] = test system: endogenous CK1 / CK1 sensor in HEK293T cells; assay: CK1 FRET biosensor, microplate reader FRET/CFP ratio; type: cell-based, human; conditions: HEK293T with CK1 sensor; for effect of transfected peptide on FRET/CFP ratio (endogenous CK1 activity): peptide transfected (Metafectene), analyzed 1.5 h after peptide transfection, n=3; for size of reduction of CK1 biosensor activity relative to CK1-specific small-molecule inhibitors or DDX3X siRNA: transfected peptide
Experimental: HEK293T cells were seeded at a density of 20,000 cells/well on 96-well black microplates (PS, μClear, clear bottom, chimney well, Greiner No. 655090). Transfection was performed as described above. Unless indicated otherwise, the respective cell populations were transfected with 50-100 ng CK1 FRET biosensor, 100 ng regulator (i.e. N-Flag DDX3X) and 1-10 ng kinase (i.e. N-Flag CK1ε). Either empty pCS2 N-Flag vector or luciferase were used to transfect the same amount of DNA in every well. Generally, the different samples were run in triplicate for each individual experiment. Owing to the varying values for the FRET/CFP ratios based on transfection efficiency, cell density and the time point of analysis, we always set the FRET/CFP ratio of cells only transfected with the CK1 sensor to 1 in order to compare individual experiments. Importantly, the individual figures with the CK1 sensor represent only experiments performed on the same 96-well plate with the same cell density, transfection efficiency and time point.
Where applicable, the small-molecule CK1 inhibitor D4476 (BioVision) was added to the cells 2-4 h prior to the analysis. For each triplicate the respective volume of D4476 (in DMSO) was added together with 1 μl Fugene HD (Promega) to 60 μl serum-free medium. The solution was mixed, incubated for 15 min and added to the cells. […] In the corresponding controls an equal amount of DMSO instead of the inhibitor was added to the medium. Analysis was performed 48-60 h after transfection on an Infinite M1000 PRO microplate reader (Tecan) by exciting CFP with a wavelength of 433 nm and measuring the resulting emission at 460-600 nm in 2 nm increments. Fluorometric spectra were background subtracted with spectra recorded from wells with non-transfected cells. Resulting FRET/CFP ratios were calculated by dividing the intensity values at the respective peaks (478 nm for CFP, 528 nm for YFP) and analyzed essentially as described ([Fritz et al., 2013]). Where indicated, CK1δ/ε-derived peptides were transfected into cells using Metafectene (Biontex) 1 hour before measurements.

CK1ε = assay: In vitro radioactive kinase assay, CK1ε activity itself (no DDX3X stimulation); type: biochemical, human; conditions: 0.3 µM peptide; n=3
Experimental: as §1

[5] = test system: DDX3X^414-582 (C-terminal helicase domain); assay: Biolayer interferometry (BLItz); type: binding, human; conditions: biotin-peptide 100 µM loaded on streptavidin chip; DDX3X^414-582 250 µM; 50 mM Tris-HCl pH 7.5, 10 mM NaCl; 60 s association/dissociation; three recordings
Experimental: Biolayer interferometry was measured on the BLItz system (Pall ForteBIO LLC). High Precision Streptavidin biosensor chips were loaded three times with 100 µM biotin-coupled CK1 peptides in 50 mM Tris-HCl (pH 7.5), 10 mM NaCl for 30 s, followed by a step to block free biotin binding sites with 10 µM biocytin. Association and dissociation times of DDX3X^414-582 (250 µM) were fixed at 60 s. Binding and dissociation curves were recorded three times.

Molecule | Binding to His-DDX3X^414-582 (ELISA) (His-DDX3X^414-582 [1]) | Tm shift / binding by FTS, in words (His-DDX3X^414-582 [2]) | effect of peptide on DDX3X stimulation of CK1ε kinase activity [3] | effect of transfected peptide on FRET/CFP ratio (endogenous CK1 activity) [4] | effect of peptide on CK1ε kinase activity itself (CK1ε) | size of reduction of CK1 biosensor activity relative to CK1-specific small-molecule inhibitors or DDX3X siRNA [4] | binding to C-terminal helicase domain of DDX3X (BLItz) [5]
δ-31: CK1δ-derived 15mer peptide (Biotin-SGSGAGEEVAIKLECVKTK) | strongest binding |  |  |  |  |  | 
δ-101: CK1δ-derived 15mer peptide, negative control (Biotin-SGSGSLKTVLLLADQMISR) | showed no binding | did not cause Tm shifts | did not interfere with the DDX3X stimulation |  |  |  | 
δ-91: CK1δ-derived 15mer peptide (Biotin-SGSGDLFNFCSRKFSLKTV) | strongest binding |  |  |  |  |  | 
δ-141: CK1δ-derived 15mer peptide (Biotin-SGSGKGNLVYIIDFGLAKK) | strongest binding |  |  |  |  |  | 
δ-231: CK1δ-derived 15mer peptide (Biotin-SGSGKKMSTPIEVLCKGYP) | to a lesser extent |  |  |  |  |  | 
ε-241: CK1ε-derived 15mer peptide (Biotin-SGSGCKGYPSEFSTYLNFC; cysteine pairing not given here) | strongest binding |  |  |  |  |  | 
biotin-SGSG-APPTPLTPTSHTANT [δ-341] | non-binding | did not cause Tm shifts |  | but not ε-1 or the negative control peptide δ-341, reduced the FRET/CFP ratio |  |  | 
ε-41: CK1ε-derived 15mer peptide (Biotin-SGSGCVKTKHPQLHIESKF) | to a lesser extent | clearly demonstrated | impaired the stimulation of CK1ε kinase activity | reduced the FRET/CFP ratio | without affecting kinase activity itself | less pronounced | 
ε-61: CK1ε-derived 15mer peptide (Biotin-SGSGGGVGIPSIKWCGAEG) | strongest binding |  |  |  |  |  | 
CC[C@H](C)[C@H](NC(=O)[C@H](CCCCN)NC(=O)[C@H](CO)NC(=O)[C@H](CCC(=O)O)NC(=O)[C@@H](NC(=O)[C@H](Cc1c[nH]cn1)NC(=O)[C@H](CC(C)C)NC(=O)[C@H](CCC(N)=O)NC(=O)[C@@H]1CCCN1C(=O)[C@H](Cc1c[nH]cn1)NC(=O)[C@H](CCCCN)NC(=O)[C@@H](NC(=O)[C@H](CCCCN)NC(=O)[C@@H](NC(=O)[C@H](CS)NC(=O)CNC(=O)[C@H](CO)NC(=O)CNC(=O)[C@H](CO)NC(=O)CCCC[C@@H]1SC[C@@H]2NC(=O)N[C@@H]21)C(C)C)[C@@H](C)O)[C@@H](C)CC)C(=O)O [δ-41] (HELM PEPTIDE1{[O=C1N[C@H]2[C@H](CS[C@H]2CCCCC(=O)[*:2])N1].S.G.S.G.C.V.K.T.K.H.P.Q.L.H.I.E.S.K.I}$$$$V2.0; C-terminus assumed) | to a lesser extent | clearly demonstrated | impaired the stimulation of CK1ε kinase activity | reduced the FRET/CFP ratio | without affecting kinase activity itself | less pronounced | no binding
CC[C@H](C)[C@H](NC(=O)[C@H](CCCCN)NC(=O)[C@H](CCCNC(=N)N)NC(=O)CNC(=O)[C@H](CC(C)C)NC(=O)[C@H](CCCNC(=N)N)NC(=O)[C@H](Cc1ccc(O)cc1)NC(=O)[C@H](CCCNC(=N)N)NC(=O)[C@H](CC(N)=O)NC(=O)CNC(=O)[C@@H](NC(=O)[C@H](CCCNC(=N)N)NC(=O)[C@H](CC(C)C)NC(=O)[C@H](CCC(=O)O)NC(=O)[C@H](CCSC)NC(=O)CNC(=O)[C@H](CO)NC(=O)CNC(=O)[C@H](CO)NC(=O)CCCC[C@@H]1SC[C@@H]2NC(=O)N[C@@H]21)C(C)C)C(=O)O [δ-1] (HELM PEPTIDE1{[O=C1N[C@H]2[C@H](CS[C@H]2CCCCC(=O)[*:2])N1].S.G.S.G.M.E.L.R.V.G.N.R.Y.R.L.G.R.K.I}$$$$V2.0; C-terminus assumed) | to a lesser extent | clearly demonstrated | impaired the stimulation of CK1ε kinase activity | reduced the FRET/CFP ratio | without affecting kinase activity itself | less pronounced | strongly interacted with δ-1
